Molecular target: T1, recombinant human PLA2G2A (sPLA2-IIA) (Homo sapiens, UniProt P14555)
T1 sequence (P14555 21-144): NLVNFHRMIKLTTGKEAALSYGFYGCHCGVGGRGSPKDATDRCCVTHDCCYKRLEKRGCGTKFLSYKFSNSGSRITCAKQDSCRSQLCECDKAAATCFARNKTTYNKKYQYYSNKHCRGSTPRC
Assay: Susceptibility of phospholipid digestion by sPLA2-IIA (lens pieces in ATF with and without sPLA2, LCMS of released fatty acid)
Conditions: phospholipid present in a silicone hydrogel contact lens body
Procedure: Each phospholipid-loaded lens is removed from its package and placed in a 6 mL glass vial containing 5 mL of the ATF described in Example 2 at room temperature on a shaker at 125 rpm overnight to elute any free fatty acid that may be present in the lens.
Each lens is rinsed in a 6 ml glass vial containing a fresh aliquot of 5 mL ATF for 30 minutes prior to running the digestion assay.
Two 4 mm pieces are cut from each lens. One piece of each lens is placed in a tube with 100 μL ATF and the other piece is placed in a tube containing 100 μL ATF+sPLA2. The tubes are incubated at 35±2° C. for 4 hours with no shaking.
T=0 hr HPLC vials are also prepared (50 μl ATF+500 μl IPA). All vials are sonicated for 15 minutes and centrifuged. […]
The supernatants are injected on an LCMS instrument equipped with an ACQUITY UPLC BEH C18 1.7 μg, 2.1 mm×15 cm column and running a mobile phase gradient from 65% A to 90% B at a flow rate of 0.35 mL/min with A=40% acetonitrile in water with 10 mM ammonium acetate and 0.2% (v/v) ammonium hydroxide, and B=10% acetonitrile in IPA with 10 mM ammonium acetate and 0.2% (v/v) ammonium hydroxide. […] The peak for the particular fatty acid of interest in the supernatants (i.e., the fatty acid that is released from the sn-2 position of the phospholipid in the contact lens) is measured. The ratio of fatty acid peak area in ATF with and without sPLA2 is calculated. […]

| Compound | Susceptibility to digestion by sPLA2 enzymes found in human tears |
| --- | --- |
| CCCCCCCCCCCCCC(=O)OC[C@H](COP(=O)([O-])OCC[N+](C)(C)C)OC(=O)CCCCCCCCCCCCC [DMPC, 1,2-dimyristoyl-sn-glycero-3-phosphocholine] | not susceptible to digestion |
| CCCCCCCC/C=C\CCCCCCCC(=O)OC[C@H](COP(=O)([O-])OCC[N+](C)(C)C)OC(=O)CCCCCCC/C=C\CCCCCCCC [DOPC, 1,2-dioleoyl-sn-glycero-3-phosphocholine] | not susceptible to digestion |
